Results published in patent US20090124539A1, “Methods of treating infection” (priority 2007, published 2009).
Converted amounts (≈) assume the structure as drawn. Read-outs that look alike come from different tables or passages of the source.

Key:
[1] = test system: Staphylococcus aureus; details: quality control range for Staphylococcus aureus ATCC 29213 (# 100); cited from earlier work
[2] = test system: Streptococcus pneumoniae; assay: MIC, broth microdilution (CLSI); format: cell-based; details: Streptococcus pneumoniae, read-out: MIC
Protocol: (§1) The solvent for all of the compounds was deionized water (DIW), and all of the compounds dissolved in the solvent. The stock solutions were allowed to stand in DIW for one hour at room temperature prior to testing to allow time for auto-sterilization.
(§2) The test organisms were originally received from clinical sources, or from the American Type Culture Collection. When received, the organisms were sub-cultured onto an appropriate agar medium. Following incubation, colonies were harvested from these plates and cell suspensions prepared and frozen at −80° C. On the day prior to assay, a frozen vial of each culture was thawed and the contents were streaked for isolation onto either Tryptic Soy Agar (Becton Dickinson, Sparks, Md.) or Tryptic Soy Agar (Enhanced Hemolysis; Becton Dickinson) supplemented with 5% sheep blood for streptococci. The agar plates were incubated overnight at 35° C. Staphylococcus aureus ATCC 29213 and Enterococcus faecalis ATCC 29212 were included as quality control isolates in the assay.
(§3) The test medium for the broth microdilution testing was Mueller Hinton II broth (MHB II; BBL# 212322, Lot # 6024003, Becton Dickinson). The broth was prepared at 1.05× normal weight/volume to offset the 5% volume of the drug solution in the final test plates.
For streptococci, lysed horse blood (Lot # H88621; Cleveland Scientific, Bath, Ohio) was added to the MHB II at a final concentration of 2%. […]
(§4) MIC values were determined using a broth microdilution method as recommended by the Clinical and Laboratory Standards Institute (Clinical and Laboratory Standards Institute^a. Methods for Dilution Antimicrobial Susceptibility Tests for Bacteria That Grow Aerobically; Approved Standard-Seventh Edition. Clinical and Laboratory Standards Institute document M7-A7 [ISBN 1-56238-587-9]. Clinical and Laboratory Standards Institute, 940 West Valley Road, Suite 1400, Wayne, Pa. 19087-1898 USA, 2006). Automated liquid handlers (Multidrop 384, Labsystems, Helsinki, Finland; Biomek 2000 and Multimek 96, Beckman Coulter, Fullerton Calif.) were used to conduct serial dilutions and make liquid transfers.
(§5) Wells of two standard 96-well microdilution plates (Falcon 3918; Becton Dickinson) were filled with 150 μL of […] using the Multidrop 384. These plates were used to prepare the drug “mother plates” that provided the serial drug dilutions for replicate “daughter plates”. The Biomek 2000 was used to transfer 150 μl of each stock solution from the wells of column 1 of a deep well plate to the corresponding wells in column 1 of the mother plate and to make eleven 2-fold serial dilutions in the mother plates. The wells of column 12 contained no drug and were the organism growth control wells. Each mother plate has the capacity to create a total of 12 daughter plates.
(§6) The daughter plates were loaded with 180 μL of one of the media described above using the Multidrop 384. The wells of the daughter plates ultimately contained 180 μL of MHB II, 10 μL of drug solution, and 10 μL of bacterial inoculum prepared in broth appropriate to the test organism (1.05×). The daughter plates were prepared on the Multimek 96 instrument, which transferred 10 μL of drug solution from each well of the mother plate to each corresponding well of each daughter plate in a single step.
Standardized inoculum of each organism was prepared following Clinical and Laboratory Standards Institute (Clinical and Laboratory Standards Institute^b. Performance Standards for Antimicrobial Susceptibility Testing; Sixteenth Informational Supplement. CLSI document M100-S16 [ISBN 1-56238-588-7]. Clinical and Laboratory Standards Institute, 940 West Valley Road, Suite 1400, Wayne, Pa. 19087-1898 USA, 2006) methods. The inoculum for each organism was dispensed into sterile reservoirs divided by length (Beckman Coulter), and the Biomek 2000 was used to inoculate the plates. […]

[3] = test system: Staphylococcus epidermidis; assay: MIC, broth microdilution (CLSI); format: cell-based; details: read-out: MIC
Protocol: as §1, §2, §3
(§7) CLSI guidelines recommend that Mueller-Hinton II broth be adjusted to contain 50 mg/L of Ca^++ ions for proper daptomycin MIC results. Since Mueller-Hinton II broth has already been adjusted by the manufacturer to contain approximately 25 mg/L of Ca^++ ions, an additional 25 mg/L of Ca^++ ions was adjusted with 10 mg/mL of CaCl2.2H2O (Lot# 084K0215; Sigma-Aldrich) added at a rate of 0.1 mL/L of broth, for each desired increment of 1 mg/L. This supplemented Mueller-Hinton II broth was used only in wells containing daptomycin.
as §4, §5
(§8) The daughter plates were loaded with 180 μL of one of the media described above using the Multidrop 384. The wells of the daughter plates ultimately contained 180 μL of MHB II, 10 μL of drug solution, and 10 μL of bacterial inoculum prepared in broth appropriate to the test organism (1.05×). The daughter plates were prepared on the Multimek 96 instrument, which transferred 10 μL of drug solution from each well of the mother plate to each corresponding well of each daughter plate in a single step. […]

[4] = test system: Enterococcus faecalis; assay: MIC, broth microdilution (CLSI); format: cell-based; details: Enterococcus faecalis, read-out: MIC
Protocol: as §1, §2, §3, §7, §4, §5, §8

[5] = test system: Enterococcus faecium; assay: MIC, broth microdilution (CLSI); format: cell-based; details: Enterococcus faecium, read-out: MIC
Protocol: (§9) The stock solutions were allowed to stand in DIW for one hour at room temperature prior to testing to allow time for auto-sterilization.
as §2, §3, §7, §4, §5, §6

[6] = test system: Staphylococcus aureus; assay: MIC, broth microdilution (CLSI); format: cell-based; details: Staphylococcus aureus, read-out: MIC
Protocol: as §9, §2, §3, §7, §4, §5, §6

[7] = test system: Enterococcus faecalis; details: quality control range for Enterococcus faecalis ATCC 29212 (# 101); cited from earlier work
[8] = test system: Streptococcus pyogenes; assay: MIC, broth microdilution (CLSI); format: cell-based
Protocol: as §1, §2, §3
For streptococci, lysed horse blood (Lot # H88621; Cleveland Scientific, Bath, Ohio) was added to the MHB II at a final concentration of 2%.
as §7, §4, §5, §8

[9] = Streptococcus pneumoniae Micromyx # 374, Wild type
[10] = Streptococcus pneumoniae Micromyx # 379, parC, gyrA, gyrB
[11] = Streptococcus pneumoniae Micromyx # 927, mef(A)
[12] = Streptococcus pneumoniae Micromyx # 928, erm(B)
[13] = Staphylococcus epidermidis Micromyx # 108, MRSE
[14] = Staphylococcus epidermidis Micromyx # 835, MSSE
[15] = ATCC29212, Enterococcus faecalis Micromyx # 101, VSE, CLSI QC strain (ATCC 29212)
[16] = Enterococcus faecalis Micromyx # 413, LZD^R from res. dev. or other
[17] = Enterococcus faecalis Micromyx # 486, Van A
[18] = Enterococcus faecalis Micromyx # 1088, Van B
[19] = Enterococcus faecium Micromyx # 750, Van^S
[20] = Enterococcus faecium Micromyx # 752, Van A
[21] = Enterococcus faecium Micromyx # 1120, Van B
[22] = Enterococcus faecium Micromyx # 1721, DAP^R
[23] = ATCC 29213 / MSSA, Staphylococcus aureus Micromyx # 100, MSSA, CLSI QC strain (ATCC 29213)
[24] = MRSA, Staphylococcus aureus Micromyx # 1004, MRSA, FA^R
[25] = MRSA, Staphylococcus aureus Micromyx # 1730, Community-acquired MRSA
[26] = MSSA, Staphylococcus aureus Micromyx # 1002, MSSA, macrolide^R
[27] = Staphylococcus aureus Micromyx # 106, RA^R
[28] = Staphylococcus aureus Micromyx # 1016, FA^R
[29] = Staphylococcus aureus Micromyx # 1651, LZD^R clinical isolate
[30] = Staphylococcus aureus Micromyx # 1727, GM^R
[31] = Staphylococcus aureus Micromyx # 1731, CHL^R
[32] = VISA, Staphylococcus aureus Micromyx # 1723, VISA
[33] = Streptococcus pyogenes Micromyx # 942, macrolide^R
[34] = Streptococcus pyogenes Micromyx # 985, Susceptible, read-out: MIC

Row | SMILES | MIC, CLSI Recommended Range [1] | MIC [2, 9] | MIC [2, 11] | MIC [2, 12] | MIC [3, 13] | MIC [3, 14] | MIC [4, 15] | MIC [4, 16] | MIC [4, 17] | MIC [4, 18] | MIC [5, 19] | MIC [5, 22] | MIC [6, 23] | MIC [6, 24] | MIC [6, 25] | MIC [6, 26] | MIC [6, 28] | MIC [6, 30] | MIC [6, 31] | MIC, CLSI Recommended Range [7] | other results
1 | CCCCCCCCCC(=O)N[C@@H](Cc1c[nH]c2ccccc12)C(=O)N[C@H](CC(N)=O)C(=O)N[C@@H](CC(=O)O)C(=O)N[C@@H]1C(=O)NCC(=O)N[C@@H](CCCN)C(=O)N[C@@H](CC(=O)O)C(=O)N[C@H](C)C(=O)N[C@@H](CC(=O)O)C(=O)NCC(=O)N[C@H](CO)C(=O)N[C@@H]([C@H](C)CC(=O)O)C(=O)N[C@@H](CC(=O)c2ccccc2N)C(=O)O[C@@H]1C [Daptomycin] | 0.25 to 1 µg/mL | ≤ 0.12 µg/mL | ≤ 0.12 µg/mL | ≤ 0.12 µg/mL | 0.5 µg/mL (≈ 0.309 µM) | 0.5 µg/mL (≈ 0.309 µM) | 1 µg/mL (≈ 0.617 µM) | 0.5 µg/mL (≈ 0.309 µM) | 0.5 µg/mL (≈ 0.309 µM) | 1 µg/mL (≈ 0.617 µM) | ≤ 0.12 µg/mL | 8 µg/mL (≈ 4.94 µM) | 0.5 µg/mL (≈ 0.309 µM) | 0.25 µg/mL (≈ 0.154 µM) | 0.5 µg/mL (≈ 0.309 µM) | 0.5 µg/mL (≈ 0.309 µM) | 0.25 µg/mL (≈ 0.154 µM) | 0.25 µg/mL (≈ 0.154 µM) | 0.25 µg/mL (≈ 0.154 µM) | 1 to 4 µg/mL | MIC [2, 10]: 0.25 µg/mL (≈ 0.154 µM); MIC [5, 20]: 2 µg/mL (≈ 1.23 µM); MIC [5, 21]: 2 µg/mL (≈ 1.23 µM); MIC [6, 27]: 0.5 µg/mL (≈ 0.309 µM); MIC [6, 29]: 0.5 µg/mL (≈ 0.309 µM); MIC [6, 32]: 1 µg/mL (≈ 0.617 µM); MIC [8, 33]: ≦0.12 μg/mL; MIC [8, 34]: ≤ 0.12 µg/mL
2 | CC(=O)NC[C@H]1CN(c2ccc(N3CCOCC3)c(F)c2)C(=O)O1 [Linezolid, linezolid] | 1 to 4 µg/mL | 4 µg/mL (≈ 11.9 µM) | 2 µg/mL (≈ 5.93 µM) | 2 µg/mL (≈ 5.93 µM) | 4 µg/mL (≈ 11.9 µM) | 4 µg/mL (≈ 11.9 µM) | 8 µg/mL (≈ 23.7 µM) | 64 µg/mL (≈ 190 µM) | 4 µg/mL (≈ 11.9 µM) | 4 µg/mL (≈ 11.9 µM) | 4 µg/mL (≈ 11.9 µM) | 2 µg/mL (≈ 5.93 µM) | 8 µg/mL (≈ 23.7 µM) | 4 µg/mL (≈ 11.9 µM) | 8 µg/mL (≈ 23.7 µM) | 4 µg/mL (≈ 11.9 µM) | 8 µg/mL (≈ 23.7 µM) | 4 µg/mL (≈ 11.9 µM) | 8 µg/mL (≈ 23.7 µM) | 1 to 4 µg/mL | MIC [5, 20]: 4 µg/mL (≈ 11.9 µM); MIC [5, 21]: 4 µg/mL (≈ 11.9 µM); MIC [6, 27]: 4 µg/mL (≈ 11.9 µM); MIC [6, 29]: 64 µg/mL (≈ 190 µM); MIC [6, 32]: 4 µg/mL (≈ 11.9 µM); MIC [8, 33]: 4 µg/mL (≈ 11.9 µM); MIC [8, 34]: 4 µg/mL (≈ 11.9 µM)
3 | Cc1onc(-c2ccccc2)c1C(=O)N[C@@H]1C(=O)N2[C@@H]1SC(C)(C)[C@@H]2C(=O)O [Oxacillin, oxacillin] | 0.12 to 0.5 µg/mL | 16 µg/mL (≈ 39.9 µM) | 16 µg/mL (≈ 39.9 µM) | 16 µg/mL (≈ 39.9 µM) | 64 µg/mL (≈ 159 µM) | ≤ 0.12 µg/mL | 16 µg/mL (≈ 39.9 µM) | 64 µg/mL (≈ 159 µM) | 16 µg/mL (≈ 39.9 µM) | 16 µg/mL (≈ 39.9 µM) | 4 µg/mL (≈ 9.96 µM) | 32 µg/mL (≈ 79.7 µM) | 0.25 µg/mL (≈ 0.623 µM) | 16 µg/mL (≈ 39.9 µM) | 32 µg/mL (≈ 79.7 µM) | 0.5 µg/mL (≈ 1.25 µM) | 32 µg/mL (≈ 79.7 µM) | 0.25 µg/mL (≈ 0.623 µM) | 0.25 µg/mL (≈ 0.623 µM) | 8 to 32 µg/mL | MIC ([2]; Streptococcus pneumoniae Micromyx # 375, parC, gyrB): ≤ 0.12 µg/mL; MIC ([2]; Streptococcus pneumoniae Micromyx # 376, parC, gyrA): ≤ 0.12 µg/mL; MIC [2, 10]: ≤ 0.12 µg/mL; MIC [8, 33]: ≦0.12 μg/mL; MIC [8, 34]: ≤ 0.12 µg/mL
